{"source": "paper PMC6332026", "about": "“Synthesis and Pharmacochemistry of New Pleiotropic Pyrrolyl Derivatives” (Molecules, 2015)", "key": {"[1]": {"tested_on": "carrageenan-induced rat paw edema", "set-up": "method as in PMID 7714750", "details": "dose 0.44 mmol/kg; cited from earlier work"}, "trypsin": {"molecular_target": "T1, trypsin (Bos taurus, UniProt P00760)", "T1 construct": "purchased Sigma Chemical, Co. (St. Louis, MO, USA); host or cells: bovine pancreas", "T1 sequence (P00760 24-246)": "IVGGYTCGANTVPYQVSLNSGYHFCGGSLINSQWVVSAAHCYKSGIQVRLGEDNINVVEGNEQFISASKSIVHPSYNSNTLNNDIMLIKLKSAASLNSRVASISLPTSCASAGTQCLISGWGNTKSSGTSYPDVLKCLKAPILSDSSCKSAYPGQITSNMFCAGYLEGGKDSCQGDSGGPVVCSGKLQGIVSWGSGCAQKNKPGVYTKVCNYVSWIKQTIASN", "assay": "Inhibition of the proteolytic activity of trypsin", "type": "biochemical", "details": "bovine albumin substrate, pH 7.6; read-out: TP IC50 (inhibition of trypsin)", "from_the_text": "Trypsin is an enzyme with an active role in inflammation. Thus, we studied the anti-proteolytic ability of the pyrrole derivatives, using salicylic acid as a reference compound. […] Comparing Compounds 2iv and 2v, the insertion of an electron-acceptor substituent (Cl) on the phenyl ring (substituent Ar^2) and the simultaneous increase of the volume of substituent Ar^2 (expressed as molar refractivity) led to an enhancement of the anti-proteolytic activity.\nCarrageenan, type K, was commercially available. Cycloxygenase-2 (COX-2) and interleukin-6 (IL-6) EIA Kit, Item No. 583371 were purchased from Cayman. Trolox was obtained from Aldrich Chemical Co. (Milwaukee, WI, USA). All starting materials were obtained from commercial sources, and they were used without further purification.\nThe tested compounds (concentrations varying from 10 μΜ–100 μΜ in DMSO) were dissolved in a phosphate buffer (0.1 M K2HPO4–NaH2PO4·2H2O, pH = 7.6), and 0.2 mL of trypsin 0.075 mg/mL were added. The mixture was incubated at room temperature for 20 min, and then, 1 mL of bovine albumin (6 g/100 mL) was added. The mixture was incubated at 37 °C for 30 min. The reaction was stopped with the addition of 1 mL of trichloroacetic acid (5% w/w) Separation of the phases followed, with measurement of the supernatants at 280 nm at room temperature. IC50 values were determined."}, "[2]": {"assay": "Interaction with the stable free radical DPPH (reducing activity)", "details": "DPPH 50 μM", "method": "2,2-Diphenyl-1-picrylhydrazyl (DPPH) is a lipophilic, free, stable radical, which absorbs at 517 nm (violet color). Upon reduction, decolorization is observed that is stoichiometric to the number of received electrons and is representative of the antioxidant ability of compounds. […] This interaction, which indicates their radical scavenging ability in an iron-free system, was measured at 100 and 1000 μM after 20 and 60 min, whereas the final concentration of DPPH was stable at 50 μΜ.\n[…] The absorbance was measured at 517 nm after 20 and 60 min at room temperature."}, "soybean lipoxygenase": {"molecular_target": "T2, soybean lipoxygenase (Glycine max, UniProt P08170)", "T2 construct": "purchased Sigma Chemical, Co. (St. Louis, MO, USA)", "T2 sequence (P08170 1-839)": "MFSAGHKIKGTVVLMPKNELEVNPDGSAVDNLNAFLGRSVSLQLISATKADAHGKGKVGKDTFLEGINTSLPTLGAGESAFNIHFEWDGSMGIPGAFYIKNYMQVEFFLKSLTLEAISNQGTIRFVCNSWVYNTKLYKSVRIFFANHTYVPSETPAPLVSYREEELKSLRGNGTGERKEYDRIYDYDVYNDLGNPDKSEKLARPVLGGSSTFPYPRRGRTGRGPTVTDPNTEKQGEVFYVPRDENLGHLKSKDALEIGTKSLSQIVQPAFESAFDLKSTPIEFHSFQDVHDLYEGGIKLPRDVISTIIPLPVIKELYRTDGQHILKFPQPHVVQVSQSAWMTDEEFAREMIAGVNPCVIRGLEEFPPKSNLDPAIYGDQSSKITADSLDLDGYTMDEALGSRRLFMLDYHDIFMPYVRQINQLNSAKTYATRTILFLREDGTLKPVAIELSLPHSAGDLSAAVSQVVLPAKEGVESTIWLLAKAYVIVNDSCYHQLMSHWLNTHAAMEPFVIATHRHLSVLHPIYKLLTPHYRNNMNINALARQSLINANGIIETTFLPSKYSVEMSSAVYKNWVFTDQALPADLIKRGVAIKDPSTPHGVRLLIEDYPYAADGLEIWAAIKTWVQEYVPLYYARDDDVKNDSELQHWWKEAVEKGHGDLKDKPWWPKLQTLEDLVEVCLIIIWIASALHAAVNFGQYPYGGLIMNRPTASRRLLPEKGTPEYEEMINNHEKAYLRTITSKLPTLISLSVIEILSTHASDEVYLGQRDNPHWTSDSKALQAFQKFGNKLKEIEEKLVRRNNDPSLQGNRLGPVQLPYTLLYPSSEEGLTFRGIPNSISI", "assay": "Inhibition of soybean lipoxygenase (UV absorbance-based enzyme assay)", "type": "biochemical", "details": "pH 9.00, read-out: LOX IC50", "method": "Lipoxygenase catalyzes the first two steps in the metabolism of arachidonic acid to leukotrienes. LTB4 generation is important in the pathogenesis of neutrophil-mediated inflammatory diseases with a marked relation to the severity of cardiovascular diseases, asthma and cancer. We evaluated the synthesized pyrroles for their ability to inhibit soybean LOX by the UV absorbance-based enzyme assay. […] The inhibition of COX-2, as a peroxidase, was determined by a colorimetric assay with the oxidation of N,N,N′,N′-tetramethyl-p-phenylenediamine (TMPD).\nThe tested compounds were dissolved in DMSO, and the final concentration was 100 μΜ. The compounds were incubated at room temperature with sodium linoleate as a substrate (0.1 mL) in a buffer solution of Tris:HCl (pH 9.00) and 0.2 mL of a solution of soybean lipoxygenase."}, "[3]": {"tested_on": "carrageenan-induced rat paw edema", "assay": "Inhibition of rat paw edema induced by carrageenan", "type": "in vivo, Fischer 344 rats", "details": "Rattus norvegicus, ip; 0.01 mmol/kg body weight, intraperitoneally, 3.5 h; read-out: CPE % inhibition of rat paw edema induced by carrageenan", "method": "The pyrrolyl derivatives, as well as their precursor chalcones were tested in vivo for the inhibition of rat paw edema induced by carrageenan. […] […]. For Compounds 2i, 2iii, 2iv and 2v, we determined their ED50 values. […]. The finding supports the primary idea of this design.\nEdema was induced in the right hind paw of Fischer 344 rats (150–200 g). In the study, both males and females were included, with the exemption of pregnant females. The animals, which have been bred in our laboratory, were housed under standard conditions and received a diet of commercial food pellets and water ad libitum during maintenance. One hour before the onset of the experiment, food and water were removed. The tested compounds (dose 0.01 mmol/kg body weight) were diluted in water with a few drops of Tween 80, and they were administered intraperitoneally simultaneously with the intradermal injection of 0.1 mL 2% of carrageenan in water. The animals were euthanatized 3.5 h after the carrageenan administration. The difference between the weight of injected and uninjected paws was calculated for each animal and was compared to control animals, which were treated with water. Indomethacin was used as a reference compound in 0.01 mmol/kg. The results were expressed as the percent inhibition of the edema (CPE %)."}}, "note": "pIC50: −log10 of the molar value."}
{"molecule": "O=C(c1ccccc1)c1ccc[nH]1", "note": "[2-benzoylpyrrole]", "values": [{"measurement": "inhibition of carrageenan-induced rat paw edema", "setting": "[1]", "value": 34, "unit": "%"}]}
{"molecule": "O=C(c1ccccc1)c1cc[nH]c1", "note": "[3-benzoylpyrrole]", "values": [{"measurement": "inhibition of carrageenan-induced rat paw edema", "setting": "[1]", "value": 43, "unit": "%"}]}
{"molecule": "O=C(O)c1ccccc1O", "note": "[Salicylic acid, reference compound]", "values": [{"measurement": "pIC50", "setting": "trypsin", "value": 4.00}]}
{"molecule": "Cc1ccc(C(=O)c2ccc(CC(=O)O)n2C)cc1", "note": "[Tolmetin, reference compound]", "values": [{"measurement": "RA % (interaction with DPPH)", "setting": "[2]; 100 μM compound, 20 min", "value": 3, "unit": "%"}, {"measurement": "RA % (interaction with DPPH)", "setting": "[2]; 100 μM compound, 60 min", "value": 3, "unit": "%"}, {"measurement": "RA % (interaction with DPPH)", "setting": "[2]; 1000 μM compound, 20 min", "value": 4, "unit": "%"}, {"measurement": "RA % (interaction with DPPH)", "setting": "[2]; 1000 μM compound, 60 min", "value": 9, "unit": "%"}, {"measurement": "pIC50", "setting": "soybean lipoxygenase", "value": 3.72}, {"measurement": "inhibition in vivo at 10 µmol/kg", "setting": "[3]", "value": 76, "unit": "%"}]}
